Experimental data: US20240130675A1, “Methods for Treating Autism Spectrum Disorder” (The General Hospital Corporation, priority 2021, published 2024)

Assays:
youth with ASD = assay: 12-week RCT: associated psychopathology and global functioning (ADHD-RS, CASI-ANX, CDRS-R, GAF); format: in vivo, human; details: MEM [N = 16]
Procedure: This study was a 12-week, randomized, double-blind, placebo-controlled, parallel group clinical trial of memantine in youth with ASD. Youth with ASD who met the eligibility criteria were randomized to receive either memantine or placebo during the course of the 12-week trial. Participants underwent multimodal MRI scans prior to and upon completion of the 12-week trial. Participants were assessed weekly during the titration phase (baseline to Week 4) and at midpoint (Week 6), Week 9, and completion (Week 12) during the maintenance phase. At each study visit, safety and efficacy were assessed by administering measures of efficacy (CGI, GAF), tolerability (assessing treatment-emergent AEs), and safety (vital signs, including weight). At baseline, midpoint, and endpoint (completion/early termination) severity of autism was assessed by administering measures of autism severity (SRS-2, ABC-SW, CY-BOCS-PDD) and associated psychopathology (ADHD-RS, CDRS-R, CASI-ANX).
Additional treatment response of autism impairment was examined for the ASD subdomains by assessing change with treatment in the severity of the SRS-2 subscales and the Children's Yale Brown Obsessive Compulsive Scale modified for PDD (CY-BOCS-PDD) (Goodman et al., 1986 (Rev 89); Scahill et al., 2006) to assess change with treatment in the ritualistic behaviors associated with ASD. Treatment response of frequently associated psychopathologies with ASD was assessed by administering the clinician-rated Attention Deficit Hyperactivity Disorder Rating Scale (ADHD-RS) (DuPaul, Power, Anastopoulos, & Reed, 1998), Children's Depression Rating Scale-Revised (CDRS-R)(Poznanski et al., 1985), and CASI-4 ASD Anxiety Scale (CASI-4 ASD Anxiety Scale (CASI-Anx)(Gadow et al., 2002). Change with treatment in the level of global functioning was assessed by the clinician-rated GAF.
The mixed-effects regression models used to analyze the secondary measures of efficacy predicted the outcome measure from treatment group (memantine versus placebo), study visit (continuous), and the treatment group-by-study visit interaction, which is our test of efficacy. To examine the effect of baseline PgACC glutamate activity level on the response to treatment, we predicted outcomes measures from treatment group, study visit (continuous), PgACC glutamate activity level (continuous), treatment group-by-study visit interaction, glutamate activity level-by-study visit interaction, treatment group-by-glutamate activity level interaction, and treatment group-by-glutamate activity level-by-study visit interaction. All mixed-effects regression models had random intercepts by subject ID, used robust standard errors to account for the repeated measures on each subject, and used an independent covariance structure for the random effects. […] All missing data were assumed to be missing at random.
Effect sizes are presented as standardized mean differences (SMD) for continuous outcomes and odds ratios (OR) for dichotomous outcomes. The SMDs for the difference of the changes in scores over time between memantine and placebo and between high glutamate and normal glutamate were calculated as Cohen's d using the following calculations: the difference in the change scores between the two groups divided by the pooled standard deviation. The SMDs for changes in scores within groups were calculated as Cohen's d using the following calculation: difference in score from baseline to endpoint divided by the pooled standard deviation. For comparisons of memantine versus placebo and high glutamate versus normal glutamate, positive SMDs and ORs>1 indicate better improvement in the memantine group and high glutamate group, respectively. For comparisons of ASD versus healthy controls, positive SMDs indicate lower glutamate activity levels in the ASD group. […]

adults with HF-ASD = assay: Uncontrolled (pilot) trial of memantine in adults with HF-ASD (Joshi et al., 2016); format: in vivo, human; details: estimate from pilot study, used for sample size
Description: Memantine is a moderate-affinity, non-competitive, NMDA receptor antagonist that is approved by the U.S. Food and Drug Administration (FDA) for the treatment of moderate to severe Alzheimer's disease (U.S. FDA, 2003).
We determined a priori that we would need a sample size of 40 participants in total (20 participants per group) to detect this difference in response rate at a 2-sided significance level of 0.05 with 80% power. Our final sample consisted of 16 participants in the memantine group and 19 participants in the placebo group with response data. With this sample size, we had […] power to detect the aforementioned difference in response rates.

ASD behaviors = details: 12 week, mean dose 5 mg/day; cited from earlier work

CC12CC3CC(C)(C1)CC(N)(C3)C2 [MEM, memantine]
ADHD-RS (youth with ASD; BL (baseline)): 29.1 ± 13.6 | CASI-ANX (youth with ASD; BL (baseline)): 14.7 ± 8.6 | CDRS-R (youth with ASD; BL (baseline)): 31.4 ± 17.1 | GAF (youth with ASD; BL (baseline)): 53.6 ± 2.7 | ADHD-RS (youth with ASD; EP (endpoint)): 18.8 ± 10.9 | CASI-ANX (youth with ASD; EP (endpoint)): 7.4 ± 5.6 | CDRS-R (youth with ASD; EP (endpoint)): 22.8 ± 7.5 | GAF (youth with ASD; EP (endpoint)): 61.8 ± 4.4 | ADHD-RS (youth with ASD; MD (mean difference)): −10.3 ± 10.6 | CASI-ANX (youth with ASD; MD (mean difference)): −7.3 ± 6.2 | CDRS-R (youth with ASD; MD (mean difference)): −8.7 ± 10.8 | GAF (youth with ASD; MD (mean difference)): 8.2 ± 5.9 | Estimated share of participants on memantine responding to treatment (adults with HF-ASD): 57% | ASD behaviors relative to placebo response (ASD behaviors): no improvement in ASD behaviors
